Literature values as cited in US6852718B2, “Phenylsulphonylipiperazinyl derivatives as 5-HT receptor ligands” (Merck Sharp & Dohme Ltd, priority 2000, dated 2005).

Biological target: human dopamine D2 receptor (Homo sapiens, UniProt P14416)
Sequence (P14416 whole entry): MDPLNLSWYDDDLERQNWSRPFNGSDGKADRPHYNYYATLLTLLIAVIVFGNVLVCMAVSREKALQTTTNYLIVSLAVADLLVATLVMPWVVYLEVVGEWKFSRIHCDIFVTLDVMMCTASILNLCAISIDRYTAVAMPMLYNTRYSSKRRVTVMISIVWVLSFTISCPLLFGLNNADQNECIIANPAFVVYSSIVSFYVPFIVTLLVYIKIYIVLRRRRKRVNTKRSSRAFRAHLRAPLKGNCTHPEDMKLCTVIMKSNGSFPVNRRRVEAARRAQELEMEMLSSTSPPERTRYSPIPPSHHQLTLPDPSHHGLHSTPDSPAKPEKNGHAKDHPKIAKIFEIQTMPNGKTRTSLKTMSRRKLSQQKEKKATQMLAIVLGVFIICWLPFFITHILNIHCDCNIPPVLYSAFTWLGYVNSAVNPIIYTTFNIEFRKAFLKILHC

For `COc1cccc(C(O)C2CCN(CCc3ccc(F)cc3)CC2)c1OC` (stereo not drawn) [MDL-100,907, (+)-α-(2,3-dimethoxyphenyl)-1-[2-(4-fluorophenyl)-ethyl]-4-piperidinemethanol], which “activity at the human dopamine D2 receptor” value is on record?
Its value is “essentially devoid of activity”.
